Measured values taken from patent US6077826A, “Synthetic macromolecular channel assembly for transport of chloride ions through epithelium useful in treating cystic fibrosis” (Kansas State University Research Foundation, priority 1998, dated 2000).

Assays:
tetrameric channel = target: T1, tetrameric channel (Homo sapiens, UniProt P23415); settings: lipid bilayers; cited from earlier work
T1 construct: 9-amino acid carrier template (tethers four peptide copies)

[1] = tested on: C-K4 -M2GlyR-generated (SEQ ID NO: 7) ISC across MDCK monolayers; assay: Effect of Cl- transport inhibitors on C-K4-M2GlyR-generated Isc across MDCK monolayers; type: cell-based, canine; settings: for fraction of stimulated current remaining: four monolayers
Protocol: Electrical measurements. MDCK cells (2.5×10^5) were plated on permeable supports (Snapwell, 12 mm dia.; Costar Corp), coated with a mixture of types I and III collagen (ICN, Costa Mesa, Ca.). The Snapwell supports were placed in a 6 well culture plate containing DME/F12+P/S and 1% FCS (0.4 mL in the upper part and 5 mL in the lower). MDCK monolayers were allowed to reach confluency and after 5 days of growth were mounted in Using chambers designed for cell culture (Costar). The position of the monolayer and the supporting membrane separated the apical and the basolateral compartments. Both sides of the monolayers were bathed in 5 mL of a Ringer's solution containing (in mM); 147 Na^+, 119 Cl^-, 20 HCO3^-, 6 alanine, 5 K^+, 5 acetate, 5 glucose, 4 lactate, 2.5 HPO4^- 1.2 Mg^+2, 1.2 SO4^-2 1 citrate, 0.5 butyric acid and 14 raffinose. The media in each half-chamber was circulated by a bubble-lift method with a gas mixture of 95% O2 /5% CO2 and maintained at 37° C. In experiments in which we removed chloride from the Ringer's solution, the molar equivalent of cyclamate was used.
The transepithelial voltage was measured using glass capillary tubes containing a plug of 5% agar in 3 M KCl and situated near each side of the cell layer. The glass tube was filled above the agar plug with 3 M KCl and Ag/AgCl electrodes were inserted into the KCI. Current electrodes consisted of a coil of platinum wire (30 gauge) located at the ends of each half-chamber. Transepithelial potential (Vtc); the short-circuitcurrent (Isc), the current necessary to clamp the voltage to zero; and the transepithelial resistance (Ftc) were measured at five minute intervals with a dual epithelial voltage clamp apparatus (Warner Instrument, Hamden, Conn.) as previously described in detail (Mangoo-Karimet al.; 1995). The average of the last two measurements in each period were used for comparison between pairs of monolayers and among each group.
In electrophysiological studies, niflumic acid, 5-nitro-2-(3-phenylpropylamino)-benzoate (NPPB, provided by SmithKline Beecham), diphenylamine-2-carboxylate (DPC, Fluka Chemika), and glibenclamide were dissolved in 100% ethanol. The maximal final concentration of ethanol, 0.5%, was without effect on Isc.
Effect of Cl^- channel blockers. We tested a variety of Cl^- channel blockers on the Isc generated by apical application of C-K4 -M2GlyR (SEQ ID NO: 7). […]. […] A negative change indicates a reduction in the current. The sensitivity sequence of the peptide-induced current to the Cl^- channel blockers was niflumic acid≥NPPB>DPC>glibenclamide>>>DIDS.

M2GlyR-stimulated Isc = assay: Effect of Cl- transport inhibitors on M2GlyR-stimulated Isc in MDCK monolayers; type: cell-based, canine
[2] = tested on: forskolin-stimulated current; settings: apical DPC, previously published dose response; cited from earlier work
MDCK monolayers [3] = assay: Intracellular cAMP by radioimmunoassay in MDCK monolayers; type: cell-based, canine; settings: 10 μM forskolin, 2 hrs
Protocol: Cyclic adenosine monophosphate measurements. Confluent monolayers of MDCK cells were incubated in defined media (1.7 mL apical and 2.5 mL basolateral) or defined media containing either 10 μM basolateral forskolin or 500 μM apical C-K4 -[…] (SEQ ID NO: 7) for two hours. Monolayers were rinsed in Ca^+2 -, Mg^+2 -tree phosphate buffered saline (PBS), then treated with 5% trichloroacetic acid (TCA) to deactivate endogenous phosphodiesterases. […] Intracellular cAMP remained in the aqueous phase. After the water and ether phases separated, the water phase was collected. Relative levels of intracellular cAMP were determined by radioimmunoassay (Biomedical Technology Inc, Stoughton, Mass.) using methods previously described (Krishna and Terranova; 1987).

MDCK monolayers [4] = assay: Fluid secretion / fluid transport by MDCK monolayers (24 hr collection); settings: 500 μM apical peptide or 10 μM basolateral forskolin, n = 12 (Table 6)
[5] = 100 μM basolateral bumetanide after 100 μM apical SEQ ID NO: 7, n = 8
[6] = 100 μM basolateral bumetanide after 100 μM apical SEQ ID NO: 7, n = 8, listed as bumetanide
[7] = 100 μM inhibitor apical for 20 minutes after 100 μM C-K4-M2GlyR, negative = inhibition

T1 sequence (P23415 278-300 limits assumed): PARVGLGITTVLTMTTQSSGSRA

For `O=C(O)c1c2ccccc2cc2ccccc12` [9-AC, 9-anthracene carboxylic acid], the “block of the tetrameric channel” value (tetrameric channel) is given as “blocked”.
`CCCCNc1cc(C(=O)O)cc(S(N)(=O)=O)c1Oc1ccccc1` [Bumetanide, bumetanide] showed an ISC after bumetanide [1, 5] of 1.4 ± 0.4 μA/cm^2, a Rtc after bumetanide [1, 5] of 2145 ± 474 Ohms.cm^2 and a Vtc after bumetanide [1, 5] of -2.8±0.6 mV. The ISC after bumetanide [1, 6] was 1.4 μA/cm^2, the Rtc after bumetanide [1, 6] was “not significant” and the “inhibition of the peptide-generated Isc” value ([1]; 100 μM basolateral bumetanide, n = 8) was 97%. For the same compound, the “effect on the peptide-generated current” value ([1]; 100 μM basolateral bumetanide, typical experiment FIG. 6) was “blocked the peptide-generated current” and the “Isc after subsequent addition of bumetanide” value (M2GlyR-stimulated Isc; 100 μM basolateral bumetanide after M2GlyR, five experiments) was 1.3±0.3 μA/cm^2.
For `O=C(O)c1ccccc1Nc1ccccc1` [DPC, diphenylamine-2-carboxylate], the “fraction of stimulated current remaining” value ([1]; 100 μM apical DPC) was 68±2%, the “100 μM inhibitor (percent change) in ISC” value [1, 7] was -38.0 ± 0.8% and the “fraction of stimulated current remaining” value ([1]; 1 mM apical DPC) was 41±6%. The “fraction of stimulated current remaining” value ([1]; 3 mM apical DPC) was 26±5%, the “DPC concentration sufficient to return Isc to the control level” value (M2GlyR-stimulated Isc; apical DPC after M2GlyR, four experiments) was less than 1 mM and the “dose of DPC required to significantly inhibit the forskolin-stimulated current” value [2] was 3 mM.
Compound `COc1ccc(Cl)cc1C(=O)NCCc1ccc(S(=O)(=O)NC(=O)NC2CCCCC2)cc1` [Glibenclamide, glibenclamide] has a percent change in Isc at 100 µM ([1]; Canis lupus familiaris, MDCK, 20 min, 100 μM inhibitor apical for 20 minutes after 100 μM C-K4-M2GlyR, negative = inhibition) of -18 ± 3.1%.
For `O=C(O)c1cc([N+](=O)[O-])ccc1NCCCc1ccccc1` [NPPB, 5-nitro-2-(3-phenylpropylamino)-benzoate], the “100 μM inhibitor (percent change) in ISC” value [1, 7] was -55.2 ± 4.5%.
For `O=C(O)c1cccnc1Nc1cccc(C(F)(F)F)c1` [Niflumic acid, niflumic acid], the inhibition at 100 µM ([1]; Canis lupus familiaris, MDCK, 20 min, heading: 100 inhibitor in ISC, 100 μM inhibitor apical for 20 minutes after 100 μM C-K4-M2GlyR, negative = inhibition, read-out: 100 μM inhibitor (percent change) in ISC) is listed as 57.1 ± 3.8% and the “block of the tetrameric channel” value (tetrameric channel) is listed as “blocked”.
For `Cc1cccc(C)c1NC(=O)C[N+](C)(C)C` [QX-222], the “block of the tetrameric channel” value (tetrameric channel) is given as “not blocked”.
For `O=C1C[C@@H]2OCC=C3CN4CC[C@]56c7ccccc7N1[C@H]5[C@H]2[C@H]3C[C@H]46` [Strychnine], the “block of the tetrameric channel” value (tetrameric channel) is given as “does not block”.
With `C=C[C@@]1(C)CC(=O)[C@]2(O)[C@@]3(C)[C@@H](O)CCC(C)(C)[C@@H]3[C@H](O)[C@H](OC(C)=O)[C@@]2(C)O1` [forskolin] the “increase of cAMP levels above the control” value (MDCK monolayers [3]) was 266% and the “fluid transport by MDCK monolayers” value (MDCK monolayers [4]) was 0.47 ± 0.05 μL/hr/cm^2.
